Experimental data taken from patent US11865114B2, “Method for treating diseases using SMARCA2/4 degraders” (Aurigene Discovery Technologies Limited, priority 2019, dated 2024).

Columns and labels:
Type in all cases: cell-based
[1] = system: Vcap (ATCC #CRL-2876) cells; assay: Anti-proliferative activity by Cell Titer Glo assay in VCap cells
Protocol: (§1) Determination of Anti-Proliferative Activity of SMARCA2/4 Degrader in Cells by Cell Titer Glo® (Promega) Assay
(§2) The prostate cancer cell lines, Vcap (ATCC #CRL-2876), LNCaP-FGC (ATCC CRL-1740), 22RV1 (ATCC CRL-2505), PC-3 (ATCC CRL-1435), DU-145 (ATCC HTB-81) and RWPE-1 (ATCC CRL-11609) were seeded in 96 well plate flat black clear bottom plates (Corning, Cat. No 3904) using respective complete media. Simultaneously cells were seeded for day 0 measurement.
(§3) On the following day, compound 43 of the present invention was added to cells from 10 mM stocks made in DMSO (Sigma Cat no. D2650). DMSO alone was used a vehicle control. Day 0 plate was terminated on day of compound addition using 50 μl of Cell Titer Glo® reagent (Promega, Cat. no G7572). Compound was incubated for 8 days, except for 22RV1 which was incubated for 6 days. Media was replenished with fresh compound on day 4. After the compound incubation, assay was terminated using 50 μl of CellTiter Glo® reagent. CellTiter Glo® Luminescent reagent determines the number of viable cells based on quantitation of ATP present which is an indicator of cell number and metabolic activity. Luminescence readings were taken in fluorescent plate reader.
(§4) Day 0 CTG measurement is designated as time zero (Tz), final CTG measurement in Vehicle control is designated as control growth DMSO (C) and test growth in the presence of drug at the nine concentration levels is designated as (Ti).
(§5) Using the measurements [time zero (Tz), growth control DMSO (C) and test growth in the presence of drug at the nine concentration levels (Ti)] the percentage growth is calculated at each of the drug concentration levels. Percentage response is calculated as: [(Ti−Tz)/(C−Tz)]×100 for Concentrations for which Ti≥Tz [(Ti−Tz)/Tz]×100 for Concentrations for which Ti<Tz
(§6) Three dose response parameters are calculated for each experimental agent. Growth inhibition of 50% (GI50) is calculated from [(Ti−Tz)/(C−Tz)]×100=50, which is the drug concentration resulting in a 50% reduction in the net luminescence increase (measured ATP) in control cells during the drug incubation.
(§7) The LC50 (concentration of drug resulting in a 50% reduction in the measured ATP at the end of the drug treatment as compared to that at the beginning) indicating a net loss of cells following treatment is calculated from [(Ti−Tz)/Tz]×100=−50.
(§8) Compound 43 of the present invention was analyzed against several cell lines representing normal and prostate cancer cells. The cell lines used in the present invention are harboring one or more tumor specific alterations such as presence of AR, PTEN mutations or TMPRSS2-ERG fusion which are presented below.

[2] = system: PC-3 (ATCC CRL-1435) cells; assay: Anti-proliferative activity by Cell Titer Glo assay in PC3 cells
Protocol: as §1, §2, §3, §4, §5, §6, §7, §8

[3] = system: DU-145 (ATCC HTB-81) cells; assay: Anti-proliferative activity by Cell Titer Glo assay in DU145 cells
Protocol: as §1, §2, §3, §4, §5
(§9) Three dose response parameters are calculated for each experimental agent. […]
(§10) Compound 43 of the present invention was analyzed against several cell lines representing normal and prostate cancer cells. […]

[4] = system: RWPE-1 (ATCC CRL-11609) cells; assay: Anti-proliferative activity by Cell Titer Glo assay in RWPE normal cells
Protocol: as §1, §2, §3, §4, §5, §9, §10

[5] = system: 22RV1 (ATCC CRL-2505) cells; assay: Anti-proliferative activity by Cell Titer Glo assay in 22RV1 cells
Protocol: as §1, §2, §3, §4, §5, §9, §10

[6] = system: LNCaP-FGC (ATCC CRL-1740) cells; assay: Anti-proliferative activity by Cell Titer Glo assay in LNCaP-FGC cells
Protocol: as §1, §2, §3, §4, §5, §6, §7, §8

For `Cc1ncsc1-c1ccc([C@H](C)NC(=O)[C@@H]2C[C@@H](O)CN2C(=O)[C@@H](NC(=O)CN2CCN(c3cc(-c4ccccc4O)nnc3N)CC2)C(C)(C)C)cc1` [Compound 43], the GI50 ([1]; Homo sapiens, 192 h, VCap cells, AR dependence +, TMPRSS2-ERG fusion +, 8 days incubation) was 3 nM, the CC50 ([1]; Homo sapiens, VCap cells, 50% reduction in measured ATP versus day 0, 8 days incubation, read-out: LC50 (the source's name)) was 11 nM and the Observed cell killing ([1]; VCap cells, 8 days incubation) was “Yes”. For the same compound, the “Inhibition of cell growth and cell killing (in words)” value (from here on “Inhibition”) ([1]; VCap, two tumor specific alterations, FIG. 4A) was “both growth and cell killing were potently impacted”, the GI50 ([2]; Homo sapiens, PC-3, 192 h, PC3 cells, PTEN mutation +, 8 days incubation) was 51 nM and the CC50 ([2]; Homo sapiens, PC-3, PC3 cells, 50% reduction in measured ATP versus day 0, 8 days incubation, read-out: LC50 (the source's name)) was 3410 nM. For the same compound, the “Inhibition” value ([2]; PC3, one tumor-specific alteration, FIG. 3B) was “potently inhibited with no or moderate cell killing”, the Observed cell killing ([2]; PC3 cells, 8 days incubation) was “Yes” and the “Inhibition” value ([3]; DU145, none of the tumor specific alterations, FIG. 2) was “neither inhibition of cell growth nor cell killing was observed”. For the same compound, the Observed cell killing ([3]; DU145 cells, 8 days incubation) was “No”, the GI50 ([3]; Homo sapiens, DU-145, 192 h, DU145 cells, none of the tumor-specific alterations, 8 days incubation) was greater than 10000 nM and the GI50 ([4]; Homo sapiens, RWPE-1, 192 h, RWPE (Normal) cells, normal AR, no PTEN mutation, no TMPRSS2-ERG fusion, 8 days incubation) was 260 nM. The Observed cell killing ([4]; RWPE (Normal) cells, 8 days incubation) was “No”, the “Inhibition” value ([4]; normal cell (RWPE), FIG. 1) was “did not show any inhibition and cell killing” and the “Inhibition” value ([5]; 22RV1, one tumor-specific alteration, FIG. 3A) was “potently inhibited with no or moderate cell killing”. For the same compound, the Observed cell killing ([5]; 22RV1 cells, 6 days incubation) was “No”, the GI50 ([5]; Homo sapiens, 144 h, 22RV1 cells, AR dependence +, 6 days incubation) was 14 nM and the GI50 ([6]; 192 h, LnCapFGC cells, AR dependence +, PTEN mutation +, 8 days incubation) was 5 nM. For the same compound, the CC50 ([6]; LnCapFGC cells, 50% reduction in measured ATP versus day 0, 8 days incubation, read-out: LC50 (the source's name)) was 22 nM, the Observed cell killing ([6]; LnCapFGC cells, 8 days incubation) was “Yes” and the “Inhibition” value ([6]; LnCapFGC, two tumor specific alterations, FIG. 4B) was “both growth and cell killing were potently impacted”.
